{
  "source": "the supplement of paper PMC12592484",
  "data": [
    {"system": "CAF#5 (primary prostate cancer-associated fibroblasts of myCAF-like type)", "experiment": "drug sensitivity score (DSS2, normalised partial AUC of dose-response, 72 h CellTiter-Glo viability) (DSS (dimensionless)); higher = more sensitive (stronger growth inhibition / cytotoxicity); extreme values may be limits of the assay", "summary_of_the_method": "(§1)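 Viability of low-passage primary prostate cancer-associated fibroblasts, PF179T, WPMY-1, LNCaP and 22Rv1 cells was read by CellTiter-Glo 2.0 luminescence 72 h after seeding onto compounds pre-dispensed in 384-well plates at five doses over a 10,000-fold range. Readings were scaled between vehicle and positive-control wells. Sensitivity is reported as a drug sensitivity score from BREEZE, namely a partial area under the fitted logistic curve divided by the log of its upper asymptote, where higher means more sensitive.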", "values": [
      {"smiles": "O=C(c1cccc(Cl)c1F)N1CCN(Cc2cccc(Nc3nccs3)n2)CC1", "note": "[MK-8745] (tested concentration range 1-10000 nM)", "drug sensitivity score": 2.8},
      {"smiles": "O=C(Nc1cccc(NC(=O)c2cccc(O)c2O)c1)c1cccc(O)c1O", "note": "[MST-312] (tested concentration range 1-10000 nM)", "drug sensitivity score": 13.5},
      {"smiles": "CNC(=O)[C@@H](NC(=O)[C@H](CC(C)C)[C@H](O)C(=O)NO)C(C)(C)C", "note": "[Marimastat] (tested concentration range 1-10000 nM)", "drug sensitivity score": 0},
      {"smiles": "Cc1ccc(NC(=O)c2ccc(CN3CCN(C)CC3)cc2)cc1Nc1nc(-c2cccnc2)cs1", "note": "[Masitinib] (tested concentration range 1-10000 nM)", "drug sensitivity score": 3.1},
      {"smiles": "CCN(CC)CCCC(C)Nc1c2ccc(Cl)cc2nc2ccc(OC)cc12", "note": "(stereo unspecified) [Mepacrine] (tested concentration range 5-50000 nM)", "drug sensitivity score": 13.4},
      {"smiles": "S=c1[nH]cnc2nc[nH]c12", "note": "[Mercaptopurine] (tested concentration range 1-10000 nM)", "drug sensitivity score": 0},
      {"smiles": "Cc1ccc(C(=O)Nc2ccc(Oc3cc4cnn(C)c4cc3-c3cn[nH]c3)c(F)c2)c(=O)n1-c1ccc(F)cc1", "note": "[Merestinib] (tested concentration range 0.1-1000 nM)", "drug sensitivity score": 3.8}
    ]},
    {"system": "CAF#2 (primary prostate cancer-associated fibroblasts of iCAF-like type)", "experiment": "drug sensitivity score (DSS2, normalised partial AUC of dose-response, 72 h CellTiter-Glo viability) (DSS (dimensionless)); higher = more sensitive (stronger growth inhibition / cytotoxicity); extreme values may be limits of the assay", "summary_of_the_method": "as §1", "values": [
      {"smiles": "Nc1cc(COc2c(Cl)cc(C[C@H](N)C(=O)O)cc2Cl)c2oc(-c3ccccc3)nc2c1", "note": "[JPH203] (tested concentration range 0.5-5000 nM)", "drug sensitivity score": 2},
      {"smiles": "CC(C)NC(=O)COc1cccc(-c2nc(Nc3ccc4[nH]ncc4c3)c3ccccc3n2)c1", "note": "[KD025] (tested concentration range 0.5-5000 nM)", "drug sensitivity score": 0.1},
      {"smiles": "CC(C)[C@@H](CS(=O)(=O)C(C)C)N1C(=O)[C@@](C)(CC(=O)O)C[C@H](c2cccc(Cl)c2)[C@H]1c1ccc(Cl)cc1", "note": "[KRT-232] (tested concentration range 1-10000 nM)", "drug sensitivity score": 14.7},
      {"smiles": "CS(=O)(=O)CCNCc1ccc(-c2ccc3ncnc(Nc4ccc(OCc5cccc(F)c5)c(Cl)c4)c3c2)o1", "note": "[Lapatinib] (tested concentration range 0.1-1000 nM)", "drug sensitivity score": 0},
      {"smiles": "O=C(Nc1cnn2ccc(N3CCC[C@@H]3c3cc(F)ccc3F)nc12)N1CC[C@H](O)C1", "note": "[Larotrectinib] (tested concentration range 0.1-1000 nM)", "drug sensitivity score": 0},
      {"smiles": "Oc1ccc2c(c1)CC[C@H](c1ccccc1)[C@@H]2c1ccc(OCCN2CCCC2)cc1", "note": "[Lasofoxifene] (tested concentration range 0.1-1000 nM)", "drug sensitivity score": 0},
      {"smiles": "Nc1cccc2c1CN(C1CCC(=O)NC1=O)C2=O", "note": "(stereo unspecified) [Lenalidomide] (tested concentration range 10-100000 nM)", "drug sensitivity score": 2.2},
      {"smiles": "COc1cc2nccc(Oc3ccc(NC(=O)NC4CC4)c(Cl)c3)c2cc1C(N)=O", "note": "[Lenvatinib] (tested concentration range 0.2-2500 nM)", "drug sensitivity score": 4.3},
      {"smiles": "N#Cc1ccc(C(c2ccc(C#N)cc2)n2cncn2)cc1", "note": "[Letrozole] (tested concentration range 1-10000 nM)", "drug sensitivity score": 0},
      {"smiles": "O=C1CCc2c(Oc3ccc4c(c3)[C@@H]3[C@H](O4)[C@H]3c3nc4cc(C(F)(F)F)ccc4[nH]3)ccnc2N1", "note": "[Lifirafenib] (tested concentration range 1-10000 nM)", "drug sensitivity score": 4.2},
      {"smiles": "C[C@]1(O)C[C@@H](c2nc(-c3ccc4ccc(-c5ccccc5)nc4c3)c3c(N)nccn32)C1", "note": "[Linsitinib] (tested concentration range 1-10000 nM)", "drug sensitivity score": 2.6},
      {"smiles": "Nc1nc(OCc2cc(Br)cs2)c2[nH]cnc2n1", "note": "[Lomeguatrib] (tested concentration range 1-10000 nM)", "drug sensitivity score": 1.4},
      {"smiles": "NC(=O)N1CCC(CC(=O)N2CCC([C@H]3c4ncc(Br)cc4CCc4cc(Cl)cc(Br)c43)CC2)CC1", "note": "[Lonafarnib] (tested concentration range 5-50000 nM)", "drug sensitivity score": 9.7},
      {"smiles": "C[C@H]1Oc2cc(cnc2N)-c2c(nn(C)c2C#N)CN(C)C(=O)c2ccc(F)cc21", "note": "[Lorlatinib] (tested concentration range 0.1-1000 nM)", "drug sensitivity score": 2.2},
      {"smiles": "Cc1c(F)cc(C(=O)NC2CC2)cc1-c1ccc(C(=O)NCC(C)(C)C)cn1", "note": "[Losmapimod] (tested concentration range 1-10000 nM)", "drug sensitivity score": 0},
      {"smiles": "CC[C@H](C)C(=O)O[C@H]1C[C@@H](C)C=C2C=C[C@H](C)[C@H](CC[C@@H]3C[C@@H](O)CC(=O)O3)[C@H]21", "note": "[Lovastatin] (tested concentration range 1-10000 nM)", "drug sensitivity score": 5.5},
      {"smiles": "CNC(=O)c1cccc2cc(Oc3ccnc4cc(OCC5(N)CC5)c(OC)cc34)ccc12", "note": "[Lucitanib] (tested concentration range 1-10000 nM)", "drug sensitivity score": 5.9},
      {"smiles": "O=C(O)CC[C@H]1CC[C@@](c2cc(F)ccc2F)(S(=O)(=O)c2ccc(Cl)cc2)CC1", "note": "[MK-0752] (tested concentration range 0.1-1000 nM)", "drug sensitivity score": 0},
      {"smiles": "NC1(c2ccc(-c3nc4ccn5c(=O)[nH]nc5c4cc3-c3ccccc3)cc2)CCC1", "note": "[MK-2206] (tested concentration range 0.1-1000 nM)", "drug sensitivity score": 2.6},
      {"smiles": "O=C(c1cccc(Cl)c1F)N1CCN(Cc2cccc(Nc3nccs3)n2)CC1", "note": "[MK-8745] (tested concentration range 1-10000 nM)", "drug sensitivity score": 4.3},
      {"smiles": "O=C(Nc1cccc(NC(=O)c2cccc(O)c2O)c1)c1cccc(O)c1O", "note": "[MST-312] (tested concentration range 1-10000 nM)", "drug sensitivity score": 15.3},
      {"smiles": "CNC(=O)[C@@H](NC(=O)[C@H](CC(C)C)[C@H](O)C(=O)NO)C(C)(C)C", "note": "[Marimastat] (tested concentration range 1-10000 nM)", "drug sensitivity score": 0},
      {"smiles": "Cc1ccc(NC(=O)c2ccc(CN3CCN(C)CC3)cc2)cc1Nc1nc(-c2cccnc2)cs1", "note": "[Masitinib] (tested concentration range 1-10000 nM)", "drug sensitivity score": 5.3},
      {"smiles": "CCN(CC)CCCC(C)Nc1c2ccc(Cl)cc2nc2ccc(OC)cc12", "note": "(stereo unspecified) [Mepacrine] (tested concentration range 5-50000 nM)", "drug sensitivity score": 14.9},
      {"smiles": "S=c1[nH]cnc2nc[nH]c12", "note": "[Mercaptopurine] (tested concentration range 1-10000 nM)", "drug sensitivity score": 0.1},
      {"smiles": "Cc1ccc(C(=O)Nc2ccc(Oc3cc4cnn(C)c4cc3-c3cn[nH]c3)c(F)c2)c(=O)n1-c1ccc(F)cc1", "note": "[Merestinib] (tested concentration range 0.1-1000 nM)", "drug sensitivity score": 5.6}
    ]},
    {"system": "CAF#6 (primary prostate cancer-associated fibroblasts of iCAF-like type)", "experiment": "drug sensitivity score (DSS2, normalised partial AUC of dose-response, 72 h CellTiter-Glo viability) (DSS (dimensionless)); higher = more sensitive (stronger growth inhibition / cytotoxicity); extreme values may be limits of the assay", "summary_of_the_method": "as §1", "values": [
      {"smiles": "Nc1cc(COc2c(Cl)cc(C[C@H](N)C(=O)O)cc2Cl)c2oc(-c3ccccc3)nc2c1", "note": "[JPH203] (tested concentration range 0.5-5000 nM)", "drug sensitivity score": 0.1},
      {"smiles": "CC(C)NC(=O)COc1cccc(-c2nc(Nc3ccc4[nH]ncc4c3)c3ccccc3n2)c1", "note": "[KD025] (tested concentration range 0.5-5000 nM)", "drug sensitivity score": 0},
      {"smiles": "CC(C)[C@@H](CS(=O)(=O)C(C)C)N1C(=O)[C@@](C)(CC(=O)O)C[C@H](c2cccc(Cl)c2)[C@H]1c1ccc(Cl)cc1", "note": "[KRT-232] (tested concentration range 1-10000 nM)", "drug sensitivity score": 11.9}
    ]}
  ]
}
